Key:
[1] = target: Calcium/calmodulin-dependent protein kinase type IV (Homo sapiens) (UniProt Q16566)
[2] = target: Misshapen-like kinase 1 (Homo sapiens) (UniProt Q8N4C8)
[3] = target: Cyclin-dependent kinase 18 (Homo sapiens) (UniProt Q07002)
[4] = target: Ribosomal protein S6 kinase alpha-1 (Homo sapiens) (UniProt Q15418)
[5] = system: Epidermal growth factor receptor (Homo sapiens), P00533 [L858R]
[6] = system: Tyrosine-protein kinase ABL1 (Homo sapiens), P00519 [H396P]
[7] = target: Tyrosine-protein kinase Lck (Homo sapiens) (UniProt P06239)
[8] = target: Cyclin-dependent kinase 14 (Homo sapiens) (UniProt O94921)
[9] = target: Casein kinase II subunit alpha (Homo sapiens) (UniProt P68400)
[10] = target: Non-receptor tyrosine-protein kinase TYK2 (Homo sapiens) (UniProt P29597)
[11] = target: Aurora kinase B (Homo sapiens) (UniProt Q96GD4)
[12] = target: Mitogen-activated protein kinase 8 (Homo sapiens) (UniProt P45983)
[13] = target: Proto-oncogene tyrosine-protein kinase receptor Ret (Homo sapiens) (UniProt P07949)
[14] = target: BMP-2-inducible protein kinase (Homo sapiens) (UniProt Q9NSY1)
[15] = target: Serine/threonine-protein kinase BRSK1 (Homo sapiens) (UniProt Q8TDC3)
[16] = target: Phosphatidylinositol 4-phosphate 5-kinase type-1 gamma (Homo sapiens) (UniProt O60331)
[17] = target: D(1B) dopamine receptor (Homo sapiens) (UniProt P21918); conditions: Compound concentration 10.0 uM
[18] = target: Rhodopsin kinase GRK7 (Homo sapiens) (UniProt Q8WTQ7)
[19] = target: Uncharacterized serine/threonine-protein kinase SBK3 (Homo sapiens) (UniProt P0C264)
[20] = target: Serine/threonine-protein kinase PAK 6 (Homo sapiens) (UniProt Q9NQU5)
[21] = target: Interleukin-1 receptor-associated kinase 4 (Homo sapiens) (UniProt Q9NWZ3)
Interleukin-1 receptor-associated kinase 4 (Homo sapiens), sequence (Q9NWZ3 whole entry, canonical isoform): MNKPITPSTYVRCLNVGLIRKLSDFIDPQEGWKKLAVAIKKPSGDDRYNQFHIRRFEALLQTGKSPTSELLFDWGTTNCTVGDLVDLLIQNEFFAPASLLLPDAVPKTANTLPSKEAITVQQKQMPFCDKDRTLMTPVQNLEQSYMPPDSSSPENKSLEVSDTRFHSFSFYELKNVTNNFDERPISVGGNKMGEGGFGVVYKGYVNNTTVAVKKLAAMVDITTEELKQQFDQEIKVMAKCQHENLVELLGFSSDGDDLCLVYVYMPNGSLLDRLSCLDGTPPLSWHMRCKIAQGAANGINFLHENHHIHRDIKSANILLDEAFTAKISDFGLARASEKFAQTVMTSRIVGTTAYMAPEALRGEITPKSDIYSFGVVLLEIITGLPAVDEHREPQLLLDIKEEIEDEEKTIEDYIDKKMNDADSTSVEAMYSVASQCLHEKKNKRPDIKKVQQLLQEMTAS

[22] = target: Phosphatidylinositol 4,5-bisphosphate 3-kinase catalytic subunit alpha isoform (Homo sapiens) (UniProt P42336)
[23] = target: Protein-tyrosine kinase 2-beta (Homo sapiens, UniProt Q14289)
[24] = target: Casein kinase I isoform alpha-like (Homo sapiens) (UniProt Q8N752)
[25] = target: Casein kinase I isoform delta (Homo sapiens) (UniProt P48730)
[26] = target: Serine/threonine-protein kinase D2 (Homo sapiens) (UniProt Q9BZL6)
Serine/threonine-protein kinase D2 (Homo sapiens), sequence (Q9BZL6 whole entry): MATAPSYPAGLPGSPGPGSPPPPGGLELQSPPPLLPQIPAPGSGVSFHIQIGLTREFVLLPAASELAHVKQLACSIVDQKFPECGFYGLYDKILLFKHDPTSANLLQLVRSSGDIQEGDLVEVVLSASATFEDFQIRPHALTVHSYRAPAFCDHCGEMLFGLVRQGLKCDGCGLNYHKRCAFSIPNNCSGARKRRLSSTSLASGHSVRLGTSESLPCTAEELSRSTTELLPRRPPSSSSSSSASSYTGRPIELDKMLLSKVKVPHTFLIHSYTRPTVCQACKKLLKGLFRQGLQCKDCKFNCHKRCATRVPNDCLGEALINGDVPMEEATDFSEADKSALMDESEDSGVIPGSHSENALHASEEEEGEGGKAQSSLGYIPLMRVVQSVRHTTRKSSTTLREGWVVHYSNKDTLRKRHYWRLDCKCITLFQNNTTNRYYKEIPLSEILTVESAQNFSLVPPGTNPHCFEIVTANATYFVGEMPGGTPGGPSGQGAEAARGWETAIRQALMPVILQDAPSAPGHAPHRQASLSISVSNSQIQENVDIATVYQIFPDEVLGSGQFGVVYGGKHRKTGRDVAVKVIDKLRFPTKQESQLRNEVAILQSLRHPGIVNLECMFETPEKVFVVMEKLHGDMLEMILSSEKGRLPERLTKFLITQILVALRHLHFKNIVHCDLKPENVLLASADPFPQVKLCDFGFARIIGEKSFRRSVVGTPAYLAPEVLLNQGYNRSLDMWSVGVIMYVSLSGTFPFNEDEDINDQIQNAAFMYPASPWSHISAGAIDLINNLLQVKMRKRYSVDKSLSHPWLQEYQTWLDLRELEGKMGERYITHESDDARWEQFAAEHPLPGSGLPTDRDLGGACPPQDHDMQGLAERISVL

[27] = target: Proto-oncogene tyrosine-protein kinase ROS (Homo sapiens) (UniProt P08922)
[28] = target: Alpha-1A adrenergic receptor (Homo sapiens) (UniProt P35348); conditions: Compound concentration 10.0 uM
[29] = target: Cyclin-dependent kinase 4 (Homo sapiens) (UniProt P11802)
[30] = target: T1, Aurora kinase A (Homo sapiens) (UniProt O14965)
T1 sequence (whole entry): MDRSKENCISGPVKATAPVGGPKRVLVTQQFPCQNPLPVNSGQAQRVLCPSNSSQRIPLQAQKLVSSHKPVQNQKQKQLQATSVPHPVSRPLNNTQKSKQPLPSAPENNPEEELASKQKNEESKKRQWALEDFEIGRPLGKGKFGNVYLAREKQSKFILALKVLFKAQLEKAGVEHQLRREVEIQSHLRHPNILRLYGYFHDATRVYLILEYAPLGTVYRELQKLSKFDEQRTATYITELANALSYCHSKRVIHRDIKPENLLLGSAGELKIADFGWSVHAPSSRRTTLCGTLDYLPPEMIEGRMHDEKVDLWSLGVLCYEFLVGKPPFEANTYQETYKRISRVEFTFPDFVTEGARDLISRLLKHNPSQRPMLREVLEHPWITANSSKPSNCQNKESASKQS

[31] = target: cAMP-dependent protein kinase catalytic subunit PRKX (Homo sapiens) (UniProt P51817)
[32] = target: Cyclin-dependent kinase 11A (Homo sapiens) (UniProt Q9UQ88)
Cyclin-dependent kinase 11A (Homo sapiens), sequence (Q9UQ88 whole entry): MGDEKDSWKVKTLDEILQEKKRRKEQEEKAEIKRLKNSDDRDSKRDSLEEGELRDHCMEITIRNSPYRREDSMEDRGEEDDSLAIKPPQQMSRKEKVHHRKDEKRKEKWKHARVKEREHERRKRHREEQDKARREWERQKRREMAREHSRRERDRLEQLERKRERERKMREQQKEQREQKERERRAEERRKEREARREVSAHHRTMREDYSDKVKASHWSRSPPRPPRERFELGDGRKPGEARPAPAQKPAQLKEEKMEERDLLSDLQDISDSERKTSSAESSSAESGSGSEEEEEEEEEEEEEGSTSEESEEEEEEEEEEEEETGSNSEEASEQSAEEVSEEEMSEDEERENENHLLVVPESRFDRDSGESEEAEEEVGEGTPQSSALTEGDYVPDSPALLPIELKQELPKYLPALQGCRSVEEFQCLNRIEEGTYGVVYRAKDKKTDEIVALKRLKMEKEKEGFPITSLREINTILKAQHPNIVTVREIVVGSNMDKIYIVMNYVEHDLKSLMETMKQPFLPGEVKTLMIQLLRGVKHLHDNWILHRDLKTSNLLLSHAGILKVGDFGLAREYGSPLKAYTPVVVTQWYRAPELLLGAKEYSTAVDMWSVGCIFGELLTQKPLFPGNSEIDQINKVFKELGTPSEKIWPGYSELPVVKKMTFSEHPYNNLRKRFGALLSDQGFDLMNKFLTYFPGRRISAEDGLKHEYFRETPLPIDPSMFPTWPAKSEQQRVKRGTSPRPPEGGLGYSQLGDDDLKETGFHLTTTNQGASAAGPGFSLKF

[33] = system: Tyrosine-protein kinase ABL1 (Homo sapiens), P00519 [M351T]
[34] = target: Tyrosine-protein kinase SYK (Homo sapiens) (UniProt P43405)
[35] = target: Ephrin type-B receptor 1 (Homo sapiens) (UniProt P54762)
Ephrin type-B receptor 1 (Homo sapiens), sequence (P54762 whole entry): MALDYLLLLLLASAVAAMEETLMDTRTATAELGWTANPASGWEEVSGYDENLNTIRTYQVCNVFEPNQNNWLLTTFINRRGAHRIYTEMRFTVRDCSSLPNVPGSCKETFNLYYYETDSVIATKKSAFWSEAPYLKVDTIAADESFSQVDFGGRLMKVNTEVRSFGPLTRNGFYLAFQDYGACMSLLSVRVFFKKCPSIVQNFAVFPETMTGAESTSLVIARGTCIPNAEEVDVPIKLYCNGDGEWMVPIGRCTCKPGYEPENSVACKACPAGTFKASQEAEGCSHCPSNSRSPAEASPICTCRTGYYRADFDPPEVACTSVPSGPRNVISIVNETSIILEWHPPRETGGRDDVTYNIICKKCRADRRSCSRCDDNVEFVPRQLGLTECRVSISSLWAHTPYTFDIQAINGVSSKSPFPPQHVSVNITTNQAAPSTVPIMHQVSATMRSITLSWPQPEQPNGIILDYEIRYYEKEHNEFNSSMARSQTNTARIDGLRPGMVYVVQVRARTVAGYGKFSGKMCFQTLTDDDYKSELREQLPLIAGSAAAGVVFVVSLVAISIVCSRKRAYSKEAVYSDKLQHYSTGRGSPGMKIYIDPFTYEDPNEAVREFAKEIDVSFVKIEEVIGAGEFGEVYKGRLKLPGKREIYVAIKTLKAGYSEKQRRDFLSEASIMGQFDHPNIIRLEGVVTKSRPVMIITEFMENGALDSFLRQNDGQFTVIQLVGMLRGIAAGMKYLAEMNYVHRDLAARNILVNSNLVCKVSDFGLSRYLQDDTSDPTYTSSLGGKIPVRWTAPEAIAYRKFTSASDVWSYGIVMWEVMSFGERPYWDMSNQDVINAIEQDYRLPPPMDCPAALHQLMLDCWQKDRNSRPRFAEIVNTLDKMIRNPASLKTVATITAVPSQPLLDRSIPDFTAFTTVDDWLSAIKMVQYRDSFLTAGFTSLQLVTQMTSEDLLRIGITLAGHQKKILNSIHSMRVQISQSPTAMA

[36] = system: Mast/stem cell growth factor receptor Kit (Homo sapiens), P10721 [L576P]
[37] = target: Phosphatidylinositol 3-kinase catalytic subunit type 3 (Homo sapiens) (UniProt Q8NEB9)
[38] = target: Mitotic checkpoint serine/threonine-protein kinase BUB1 (Homo sapiens) (UniProt O43683)
[39] = target: Tyrosine-protein kinase receptor Tie-1 (Homo sapiens) (UniProt P35590)
[40] = system: Phosphatidylinositol 4,5-bisphosphate 3-kinase catalytic subunit alpha isoform (Homo sapiens), P42336 [C420R]
[41] = Compound concentration 100.0 nM
[42] = Compound concentration 1000.0 nM

Cyclin-dependent kinase 18 (Homo sapiens), sequence (Q07002 whole entry): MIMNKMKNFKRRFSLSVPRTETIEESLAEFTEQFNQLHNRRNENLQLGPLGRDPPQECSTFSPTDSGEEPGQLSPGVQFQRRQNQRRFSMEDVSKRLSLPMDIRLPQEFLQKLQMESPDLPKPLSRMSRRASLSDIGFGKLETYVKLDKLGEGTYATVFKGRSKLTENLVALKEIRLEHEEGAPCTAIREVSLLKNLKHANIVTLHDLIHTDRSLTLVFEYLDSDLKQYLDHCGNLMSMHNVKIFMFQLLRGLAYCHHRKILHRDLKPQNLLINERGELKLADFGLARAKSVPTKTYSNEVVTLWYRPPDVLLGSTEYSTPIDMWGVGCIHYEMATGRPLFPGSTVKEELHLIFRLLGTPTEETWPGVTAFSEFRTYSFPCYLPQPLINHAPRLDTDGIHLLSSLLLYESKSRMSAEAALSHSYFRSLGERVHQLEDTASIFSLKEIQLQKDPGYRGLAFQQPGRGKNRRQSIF
Misshapen-like kinase 1 (Homo sapiens), sequence (Q8N4C8 whole entry, looked up): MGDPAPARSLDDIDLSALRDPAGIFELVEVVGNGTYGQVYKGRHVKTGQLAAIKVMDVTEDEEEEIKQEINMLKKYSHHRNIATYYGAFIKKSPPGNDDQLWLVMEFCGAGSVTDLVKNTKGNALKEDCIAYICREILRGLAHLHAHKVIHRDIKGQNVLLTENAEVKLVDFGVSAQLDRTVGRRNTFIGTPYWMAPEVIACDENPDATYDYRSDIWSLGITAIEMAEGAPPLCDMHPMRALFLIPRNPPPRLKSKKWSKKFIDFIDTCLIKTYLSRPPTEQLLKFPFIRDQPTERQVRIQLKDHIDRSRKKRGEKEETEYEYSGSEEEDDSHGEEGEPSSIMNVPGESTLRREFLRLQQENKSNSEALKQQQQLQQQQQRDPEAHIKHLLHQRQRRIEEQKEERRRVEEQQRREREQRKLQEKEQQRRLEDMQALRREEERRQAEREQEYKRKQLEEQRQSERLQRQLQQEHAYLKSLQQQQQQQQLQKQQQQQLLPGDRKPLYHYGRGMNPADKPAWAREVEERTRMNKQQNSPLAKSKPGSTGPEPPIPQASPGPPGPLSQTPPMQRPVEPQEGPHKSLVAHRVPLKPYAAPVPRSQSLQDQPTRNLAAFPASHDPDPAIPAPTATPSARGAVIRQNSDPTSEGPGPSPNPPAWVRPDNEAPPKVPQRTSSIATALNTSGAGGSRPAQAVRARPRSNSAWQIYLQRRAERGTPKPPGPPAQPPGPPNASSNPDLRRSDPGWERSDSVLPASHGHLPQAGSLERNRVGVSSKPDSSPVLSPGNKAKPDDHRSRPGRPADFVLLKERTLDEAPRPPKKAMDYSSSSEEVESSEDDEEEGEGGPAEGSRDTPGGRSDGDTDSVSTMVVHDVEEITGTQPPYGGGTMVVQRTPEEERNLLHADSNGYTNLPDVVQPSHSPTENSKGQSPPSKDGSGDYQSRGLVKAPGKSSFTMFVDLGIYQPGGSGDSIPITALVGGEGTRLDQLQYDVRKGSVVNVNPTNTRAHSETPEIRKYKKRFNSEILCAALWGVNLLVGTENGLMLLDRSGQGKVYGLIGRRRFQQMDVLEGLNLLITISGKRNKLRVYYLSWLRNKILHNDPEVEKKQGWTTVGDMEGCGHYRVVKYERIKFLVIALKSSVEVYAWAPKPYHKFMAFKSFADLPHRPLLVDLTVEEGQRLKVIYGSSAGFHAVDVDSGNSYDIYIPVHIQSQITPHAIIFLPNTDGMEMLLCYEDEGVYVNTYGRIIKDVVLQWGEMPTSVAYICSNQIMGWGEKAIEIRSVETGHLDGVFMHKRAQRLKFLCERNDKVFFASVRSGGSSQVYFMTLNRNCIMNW

CNC(=O)c1ccc(Nc2ncc(C(F)(F)F)c(NCc3nccnc3N(C)S(C)(=O)=O)n2)cc1 [DEFACTINIB]
active: residual activity [2, 41] 44% | residual activity [10, 41] 27% | residual activity [23, 41] 8.3% | residual activity [39, 41] 47%
inactive: residual activity [1, 41] 100% | residual activity [3, 41] 68% | residual activity [4, 41] 71% | residual activity [5, 41] 100% | residual activity [6, 41] 100% | residual activity [7, 41] 87% | residual activity [8, 41] 88% | residual activity [9, 41] 61% | residual activity [11, 41] 73% | residual activity [12, 41] 100% | residual activity [13, 41] 60% | residual activity [14, 41] 81% | residual activity [15, 41] 100% | residual activity [16, 41] 100% | inhibition [17] -7.46% | residual activity [18, 41] 97% | residual activity [19, 41] 100% | residual activity [20, 41] 100% | residual activity [21, 41] 92% | residual activity [22, 41] 100% | residual activity [24, 41] 77% | residual activity [25, 41] 98% | residual activity [26, 41] 100% | residual activity [27, 41] 58% | inhibition [28] -4.42% | residual activity [29, 41] 100% | residual activity [30, 41] 50% | residual activity [31, 41] 95% | residual activity [32, 41] 77% | residual activity [33, 41] 100% | residual activity [34, 41] 66% | residual activity [35, 41] 87% | residual activity [36, 41] 86% | residual activity [37, 41] 100% | residual activity [38, 41] 100% | residual activity [40, 41] 100%

CN(c1ccnc(CNc2nc(Nc3ccc4c(c3)CC(=O)N4)ncc2C(F)(F)F)n1)S(C)(=O)=O [PF-00911705]
inactive: residual activity [1, 42] 100% | residual activity [2, 42] 53% | residual activity [3, 42] 100% | residual activity [4, 42] 68% | residual activity [5, 42] 73% | residual activity [8, 42] 86% | residual activity [12, 42] 65% | residual activity [16, 42] 91% | inhibition [17] -0.97% | residual activity [19, 42] 100% | residual activity [20, 42] 71% | residual activity [21, 42] 50% | residual activity [22, 42] 100% | residual activity [23, 42] 59% | residual activity [24, 42] 81% | residual activity [25, 42] 100% | residual activity [26, 42] 92% | inhibition [28] -3.55% | residual activity [29, 42] 93% | residual activity [32, 42] 94% | residual activity [33, 42] 62% | residual activity [35, 42] 99% | residual activity [36, 42] 66% | residual activity [37, 42] 84% | residual activity [38, 42] 91% | residual activity [40, 42] 91%
active: residual activity [6, 42] 46% | residual activity [7, 42] 46% | residual activity [9, 42] 26% | residual activity [10, 42] 27% | residual activity [11, 42] 9.9% | residual activity [13, 42] 49% | residual activity [14, 42] 2.3% | residual activity [15, 42] 43% | residual activity [18, 42] 29% | residual activity [27, 42] 43% | residual activity [30, 42] 14% | residual activity [31, 42] 15% | residual activity [34, 42] 5.7% | residual activity [39, 42] 17%

— ChEMBL document CHEMBL4507299, “Data for DCP probe PF-04554878” (2021)
